In patent US9351966B2, “Composition comprising a combination of omeprazole and lansoprazole, and a buffering agent, and methods of using same” (The Curators of the University of Missouri, priority 2008, dated 2016):
Each block holds one compound with its values, some of them ahead of it.

Key:
[1] = cited from earlier work; for t1/2: Table 1, daily dose 15-160 mg as listed; for half-life of elimination, normal, mean: drug given alone; for mean plasma elimination half-life: healthy adults, clinical studies
[2] = Cross-over study, blood draws: AUC and half-life of PPI; assay type: in vivo, human; conditions: for prolongation factor of elimination half-life: omeprazole and lansoprazole administered together versus normal
Protocol: (§1) A study was performed as a cross-over design, with washout between doses. The subject received the test article after placing a Bravo pH probe in the stomach and verifying its placement with pH readings of less than 2. After a baseline evaluation, to ensure that the pH probe is in the correct place for reading gastric acid in the stomach, the subject has an intravenous access established and a baseline blood draw was taken to provide evidence of a lack of PPI in the blood at baseline. The subject received the one of three different formulations, and the time of administration was noted. Blood draws were taken at intervals to characterize the absorption, distribution and elimination phases of the test article. […] Continuous gastric pH recording was made utilizing the Bravo pH probe and radiofrequency receiver. Gastric pH values were recorded every 10 seconds.
as §1, with “eighteen” for “three”

[3] = clinical trials; Zegerid (omeprazole) and Prevacid (lansoprazole) package inserts; cited from earlier work
[4] = tested on: 2C19 and 3A4 isoforms of the Cytochrome P450 enzyme; conditions: liver; cited from earlier work
Barrett's esophagus = conditions: extended treatment (years), twice per day or more, with or without surgery; cited from earlier work
[5] = rats; drug or its metabolites; cited from earlier work
intragastric acidity = conditions: after a single dose of PPI (Day 1); 20 mg delayed release; cited from earlier work

Structure (SMILES): Cc1c(OCC(F)(F)F)ccnc1C[S@@+]([O-])c1nc2ccccc2[nH]1 [Dexlansoprazole]
t1/2 [1]: 1 to 1.6 h

Structure (SMILES): COc1ccc2nc([S@@+]([O-])Cc3ncc(C)c(OC)c3C)[nH]c2c1 [Esomerprazole]
t1/2 [1]: 1.1 to 1.6 h

half-life ([2]; human, blood, oral, omeprazole and lansoprazole together, e.g. 80 mg lansoprazole+80 mg omeprazole+1680 mg sodium bicarbonate, read-out: elimination half-life when administered together (converted)): 222 min
prolongation factor of elimination half-life [2]: 300%
Structure (SMILES): Cc1c(OCC(F)(F)F)ccnc1C[S+]([O-])c1nc2ccccc2[nH]1 (stereo not shown) [Lansoprazole]
t1/2 [1]: 1 to 1.5 h
half-life of elimination, normal, mean [1]: approximately 1.2 hrs
mean plasma elimination half-life [1]: about 1.5 hours
Adverse effect: Abdominal pain [3]: 2.1 % of patients
Adverse effect: Asthenia [3]: <1 % of patients
Adverse effect: Constipation [3]: 1.0 % of patients
Adverse effect: Diarrhea [3]: 3.8 % of patients
Adverse effect: Headache [3]: <1 % of patients
metabolism by Cytochrome P450 isoforms [4]: approximately equal amounts by both the 2C19 and 3A4 isoforms
patients with reversal of Barrett's esophagus (Barrett's esophagus): 3 of 123
excretion in breast milk [5]: excreted in breast milk

prolongation factor of elimination half-life [2]: 200%
elimination half-life when administered together ([2]; omeprazole and lansoprazole together, e.g. 80 mg lansoprazole+80 mg omeprazole+1680 mg sodium bicarbonate): 1.9 h
Structure (SMILES): COc1ccc2[nH]c([S+]([O-])Cc3ncc(C)c(OC)c3C)nc2c1 (stereo not shown) [Omeprazole, 5-methoxy-2-[[(4-methoxy-3,5-dimethyl-2-pyridinyl)methyl]sulfinyl]-1H benzimidazole]
IGA-24Day 1 (intragastric acidity): 640 mmol·h/L
t1/2 [1]: 0.9 to 1.5 h
half-life of elimination, normal, mean [1]: approximately 0.95 hrs
mean plasma elimination half-life [1]: less than 1 hours
Adverse effect: Abdominal pain [3]: 5.2 % of patients
Adverse effect: Asthenia [3]: 1.3 % of patients
Adverse effect: Constipation [3]: 1.5 % of patients
Adverse effect: Diarrhea [3]: 3.7 % of patients
Adverse effect: Headache [3]: 2.9 % of patients
metabolism by Cytochrome P450 isoforms [4]: mostly by the 2C19 isoform
patients with reversal of Barrett's esophagus (Barrett's esophagus): 3 of 123

Structure (SMILES): COc1ccnc(C[S+]([O-])c2nc3ccc(OC(F)F)cc3[nH]2)c1OC (stereo not shown) [Pantoprazole]
t1/2 [1]: 1.2 to 1.5 h

Structure (SMILES): COCCCOc1ccnc(C[S+]([O-])c2nc3ccccc3[nH]2)c1C (stereo not shown) [Rabeprazole]
t1/2 [1]: 0.8 to 1 h

Structure (SMILES): COc1ccc2[nH]c([S+]([O-])Cc3ncc(C)c(OC)c3C)nc2n1 (stereo not shown) [Tentaoprazole, 5-methoxy-2-[[(4-methoxy-3,5-dimethyl-2-pyridyl)methyl]sulfinyl]imidazo[4,5-b]pyridine]
t1/2 [1]: 6.8 to 8 h
